≈ marks a conversion by molar mass, not a printed value. Where “and” joins values, the source holds several entries; their conditions need not be identical. Equal entries are not always repeated. Where two headings read alike, the source gives them in different places. Numbered stars: 1 amine (or outer) side, 2 acyl side, 3 side chain; on linkers, the order of the positions; unused ones are H or OH. Bridge positions count the residues as written; N and C are the ends. Square brackets hold non-standard residues; d marks the D form. Peptide text beside a SMILES is read from it. * marks the point of attachment. hTyr(3S-OH,4S-OH,3'-OSO3H) = N[C@H](C(=O)O)[C@H](O)[C@@H](O)c1ccc(O)c(OS(=O)(=O)O)c1; pTerphenylCO(4''-OnC5H11) = CCCCCOc1ccc(-c2ccc(-c3ccc(C(=O)*)cc3)cc2)cc1; Orn(4R-OH,5R-OH) = O=C([C@H](C[C@@H](O)[C@@H](O)N[*:3])N[*:1])[*:2]; hTyr(3S-OH,4S-OH) = N[C@H](C(=O)O)[C@H](O)[C@@H](O)c1ccc(O)cc1; Pro(3S-OH,4S-Me) = C[C@H]1CN[C@H](C(=O)O)[C@H]1O; X1 = CCCCCOc1ccc(-c2cc(-c3ccc(C(=O)*)cc3)no2)cc1; Gln(3R-OH) = NC(=O)C[C@@H](O)[C@H](N)C(=O)O; Hyp = O=C(O)[C@@H]1C[C@@H](O)CN1
Experiments:
[1] = molecular target: T1, Prp8 intein (Cryptococcus gattii, UniProt E6R027); experiment: Split Renilla luciferase RLuc-Prp8 intein splicing assay; type: biochemical; conditions: split Renilla luciferase RLuc-Prp8 intein splicing
T1 sequence (E6R027 entry or part of it): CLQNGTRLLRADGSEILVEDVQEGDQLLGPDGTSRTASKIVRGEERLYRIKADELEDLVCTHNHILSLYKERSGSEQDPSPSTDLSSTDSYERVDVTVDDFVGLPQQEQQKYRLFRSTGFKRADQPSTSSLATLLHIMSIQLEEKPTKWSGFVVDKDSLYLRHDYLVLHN
Experimental: Split luciferase Prp8 intein splicing assay—The split RLuc-Prp8 fusion protein was carried out and monitored using a Veritas luminometer, as described previously.
Split luciferase RLuc-Prp8 and NnLuc-Prp8 intein splicing assays—The split RLuc-Prp8 intein splicing assay was carried out and monitored using a Veritas luminometer, as described previously. […] Microbes. Infect. […] For NnLuc-Prp8 intein splicing assay, the NnLuc-prp8 is diluted in assay buffer (50 mM Tris, 0.1% BSA, 1 mM EDTA, pH 7.4) and 50 ul is added to each well in 96 well black plates. Test molecules or the solvent was added and incubated for 30 to 60 min. A splicing inducer TCEP (50 ul, 100 μM) is added and incubated for 24 h. Luciferase substrate (Furimazine, 25 ul 1:10,000 diluted) is added and luminescence is read using a luminescence reader. IC50 is calculated using Graphpad prism.

[2] = test system: human lung carcinoma cell line A549; experiment: in vitro; type: cell-based; conditions: 48 h, MTT
Method in brief: (§1)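 A549 cells (5×10^3 per well) were exposed to compounds at 37 °C for 48 h, and viability was read by MTT assay; N=3.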

[3] = molecular target: T1, Prp8 intein; experiment: Split GFP-Prp8i intein splicing assay; type: biochemical; conditions: for IC50: split GFP-Prp8 intein splicing
Experimental: Cloning, expression and purfication—The split GFP-Prp8i was constructed using a mega-PCR mutagenesis approach. […] After digestion with Dpn I restriction enzyme, the PCR product was transformed into DH5α Escherichia coli. Clones were verified by plasmid DNA sequencing. The expression, refolding and purification of the GFP-Prp8i fusion protein were carried out as described previously.
[…] Then 100 μl 2×TCEP was added to a final concentration of 20 μM. The reactions were incubated at 25° C. overnight. […] Two readings were taken, one prior to addition of TCEP (I0) and one after incubation overnight with TCEP (If). Fluorescence/luminescence differences (ΔFluorescence or ΔLuminescence) were defined as If−I0 for each well. […] DMF control served as 100% splicing activity.
Split GFP-Prp8 and CJGFP-Prp8 intein splicing assays—Using black and clear bottom 96-well plates, the DPNB-treated, -refolded and -concentrated GFP-Prp8 or CfGFP-Prp8 fusion protein (0.5 μM) was incubated with compounds or Dimethylsulfoxide (DMSO) solvent control for 30 min at 25° C. in a 100 μl intein splicing buffer (20 mM Bis-tris propane, 0.5 M NaCl, 0.5 M arginine, 1 mM EDTA, and 0.05% CHAPS). Then 100 μl 2×TCEP was added to a final concentration of 20 μM. The reactions were incubated at 25° C. overnight. […] Two readings were taken, one prior to addition of TCEP (I0) and one after incubation overnight with TCEP (If). Fluorescence/luminescence differences (ΔFluorescence or ΔLuminescence) were defined as If−I0 for each well. […] DMSO control served as 100% splicing activity.

[4] = test system: C. neoformans H99; experiment: Checkerboard assay; type: cell-based, Cryptococcus neoformans; conditions: for MIC: Cryptococcus neoformans, H99, 48 h
Experimental: Compounds were initially dissolved in DMSO and diluted in RPMI-1640-MOPS media four times the targeted final concentration and 50 μl was added per well. The second compound was similarly diluted and 50 μl was added per well, to a final volume of 100 μl/well. C. neoformans […] inoculum (100 μl) prepared from freshly grown cultures and diluted to an absorbance of 0.1 at 530 nm in water and further diluted (1:500) in RPMI-1640-MOPS was added to each well. To determine the fungicidal concentration of a compound, the wells with no visible growth were serially diluted, plated on SDA, and incubated at 30° C. for 48-72 h for the recovery of colony-forming units. Additionally, the cell density of treated and untreated wells was also estimated by reading absorbance at 630 nm using an EL808 reader (Bio-Tek). Percentage of inhibition compared to that of the no-drug-control well was calculated. […] Fractional inhibitory concentration (FIC) index value is calculated as the […]. The FIC index value is then used to categorize the interaction of the two compounds tested. […] Doern, C., “When Does 2 plus 2 Equal 5?A Review of Antimicrobial Synergy Testing,” Journal of Clinical Microbiology 52(12):4124-4128 (2014), which is hereby incorporated by reference in its entirety.

[5] = test system: C. neoformans; experiment: Sensititre YeastOne Y09 AST drug combination assay; type: cell-based, Cryptococcus neoformans; conditions: 6G-318S at 0.16 ug/ml, C. neoformans H99
Experimental: Sensititre YeastOne Y09 AST assay—Fungal susceptibility to a combination of compounds was carried out using the Sensititre YeastOne Y09 AST assay kit (Thermofisher), according to the manufacturer's manual. Briefly, fungal C. neoformans cells in exponential growth phase were diluted to a final OD530 of 0.1. Then 20 μl diluted cells were further diluted into 10 ml YPD as a stock. […] The stock C. neoformans (100 μl, ˜200 cells) were dispensed into the compound-ready 96-well plate. The fungal cells (treated or with DMF) were incubated at 30° C. for 48 h. The cell cultures were visualized by naked eye. The MIC break points were determined according to manufacturer's instructions.

[6] = test system: C. neoformans H99 strain; experiment: Fungal susceptibility test, broth microdilution MIC; type: cell-based, Cryptococcus neoformans
Method in brief: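 Compound MICs were determined by broth microdilution using a compound concentration series.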

[7] = test system: trypsin; experiment: Trypsin protease inhibition (Abz FRET substrate); type: biochemical; conditions: compound at 400 μM
Experimental: (§2) Trypsin and papain protease inhibition—An Abz FRET substrate (Abz-RRRRSAG-nTyr) developed previously (Li et al., “Existing Drugs as Broad-Spectrum and Potent Inhibitors for Zika Virus by Targeting NS2B-NS3 Interaction,” Cell Research 27(8):1046-1064 (2017), which is hereby incorporated by reference in its entirety) was used as the substrate for inhibition of trypsin and papain proteases. In black and clear-bottom 96-well plates, 1 μg trypsin (Sigma-Aldrich) was incubated with DMF or compounds at 400 μM at 25° C. for 30 min in a 70 μl reaction buffer containing 20 mM Tris, pH 8.0, 100 mM NaCl, 5% Glycerol, and 0.05% CHAPS. For papain, 1 μg Papain (Sigma-Aldrich) was incubated with compounds at 400 μM at 25° C. for 30 min in a 70 μl reaction buffer composed of 1.1 mM EDTA, 0.067 mM β-mercaptoethanol, 5.5 mM cysteine. […]

[8] = in vitro; type: cell-based, human; conditions: human, CC50 A549
Method in brief: as §1

[9] = test system: Candida albicans; experiment: Fungal susceptibility test, broth microdilution MIC; type: cell-based; conditions: microdilution assay
Experimental: Fungal susceptibility test—The fungal susceptibility test was carried out with a compound concentration series as described. Li et al., “Cisplatin Protects Mice From Challenge of Cryptococcus neoformans by Targeting the Prp8 Intein,” Emerging Microbes & Infections 8(1):895-908 (2019), which is hereby incorporated by reference in its entirety. The broth microdilution method was used to determine the compound MIC values against C. neoformans. In brief, serial 2-fold dilutions of the 6G-318SS (20 to 0.03 μg/ml) were made in 100 μl RPMI-1640 medium with MOPS in 96-well U-bottom plates. The C. neoformans H99 strain (100 μl of 0.5×10^5/ml) in log phase was added to each well. […] The MIC break-point was defined as no visible fungal growth by naked eye or by determining the 90% growth inhibition using absorbance at 630 nm, compared with no inhibitor control in a 96-well plate.
C. albicans, a fungus without the Prp8 intein, was also used as a control.

[10] = molecular target: T2, papain (Carica papaya, UniProt P00784); experiment: Papain protease inhibition (Abz FRET substrate); type: biochemical; conditions: compound at 400 μM
T2 construct: purchased Sigma-Aldrich
T2 sequence (P00784 134-345): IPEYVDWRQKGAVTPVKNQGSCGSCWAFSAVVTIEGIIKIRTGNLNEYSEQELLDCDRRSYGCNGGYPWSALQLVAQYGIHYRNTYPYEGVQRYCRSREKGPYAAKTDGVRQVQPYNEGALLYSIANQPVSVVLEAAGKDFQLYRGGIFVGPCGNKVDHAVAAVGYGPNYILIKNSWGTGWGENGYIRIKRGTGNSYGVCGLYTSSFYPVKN
Experimental: as §2

## 5-((4-Chlorophenyl)sulfonyl)-N-(6-fluoropyridin-3-yl)-1,2,3-thiadiazole-4-carboxamide [JMX0581]
[1]
  IC50: 11.2 µM
[2]
  CC50: 92.4 µM
[3]
  IC50: 6.1 µM

## C[C@@H]1[C@H](O)[C@@H](C)/C=C/C=C/C=C/C=C/C=C/C=C/C=C/[C@H](O[C@@H]2O[C@H](C)[C@@H](O)[C@H](N)[C@@H]2O)C[C@@H]2O[C@](O)(C[C@@H](O)C[C@@H](O)[C@H](O)CC[C@@H](O)C[C@@H](O)CC(=O)O[C@H]1C)C[C@H](O)[C@H]2C(=O)O [AmB, amphotericin B, reference compound]
[4]; C. neoformans H99, 48 h, 90% inhibition
  MIC-alone: 0.578 µg/mL
[4]; combination 6G-318S + AmB, well F6
  MIC-comb: 0.144 µg/mL
[5]
  reduction of MIC of known antifungal on addition of 6G-318S: more than 4 fold

## CCC(C)n1ncn(-c2ccc(N3CCN(c4ccc(OCC5COC(Cn6cncn6)(c6ccc(Cl)cc6Cl)O5)cc4)CC3)cc2)c1=O (stereo not drawn) [IZ, itraconazole, reference compound]
[4]
  MIC: 0.176 µg/mL
[4]; combination 6G-318S + IZ, well D6
  MIC-comb: 0.088 µg/mL
[5]
  reduction of MIC of known antifungal on addition of 6G-318S: 2 fold

## 5-((4-Chlorophenyl)thio)-N-(6-fluoropyridin-3-yl)-1,2,3-thiadiazole-4-carboxamide [JMX0580]
[1]
  IC50: 6.4 µM
[2]
  CC50: 33.1 µM
[3]
  IC50: 35.3 µM
[6]; C. neoformans H99, microbroth dilution, read-out: MIC H99
  MIC: >100 µM

## O=C(Nc1ccc(F)cc1F)c1nnsc1S(=O)(=O)c1ccc(Cl)cc1 [6G-319S, 5-((4-Chlorophenyl)sulfonyl)-N-(2,4-difluorophenyl)-1,2,3-thiadiazole-4-carboxamide]
[7]
  inhibition of trypsin protease activity: neither 6G-318S, 6G-319S, nor cisplatin significantly inhibited
[8]
  CC50 at 48 h: 44.9 µg/mL and ~108 µM
[9]
  MIC: 20.8 µg/mL (≈ 50 µM)
[3]; compound at 20 μM, read-out: inhibition of the GFP-Prp8i signal / Prp8 intein splicing
  inhibition at 20 µM: > 50%
[3]
  IC50: 9.7 µM
[6]; Cryptococcus neoformans, H99STRAIN, H99 strain, 48 h, 30° C., read-out: MIC C. neoformans
  MIC: 1.3 µg/mL
[10]
  inhibition of papain protease activity: neither 6G-318S, 6G-319S, nor cisplatin significantly inhibited

## C[C@@H](c1ncncc1F)[C@](O)(Cn1cncn1)c1ccc(F)cc1F [Vor, Voriconazole, reference compound]
[4]
  MIC: 0.044 µg/mL
[4]; combination 6G-318S + Vor, well G3
  MIC-comb: 0.087 µg/mL
[5]
  reduction of MIC of known antifungal on addition of 6G-318S: 2 fold

## Nc1nc(=O)[nH]cc1F [5-FC, 5-fluorocytosine, reference compound]
[4]
  MIC: 8.1 µg/mL
[4]; combination 6G-318S + 5-FC, well D6
  MIC-comb: 2.025 µg/mL
[5]
  reduction of MIC of known antifungal on addition of 6G-318S: 2 fold

## CC[C@@H]([C@H](C)O)n1ncn(-c2ccc(N3CCN(c4ccc(OC[C@@H]5CO[C@@](Cn6cncn6)(c6ccc(F)cc6F)C5)cc4)CC3)cc2)c1=O [PZ, Posaconazole]
[5]
  reduction of MIC of known antifungal on addition of 6G-318S: did not change

## OC(Cn1cncn1)(Cn1cncn1)c1ccc(F)cc1F [FZ, fluconazole]
[5]
  reduction of MIC of known antifungal on addition of 6G-318S: did not change

## CCCCCOc1ccc(-c2ccc(-c3ccc(C(=O)N[C@H]4C[C@@H](O)[C@@H](O)NC(=O)[C@@H]5[C@@H](O)[C@@H](C)CN5C(=O)[C@H]([C@@H](C)O)NC(=O)[C@H]([C@H](O)[C@@H](O)c5ccc(O)cc5)NC(=O)[C@@H]5C[C@@H](O)CN5C(=O)[C@H]([C@@H](C)O)NC4=O)cc3)cc2)cc1 [AND, Anidulafungin] ({pTerphenylCO(4''-OnC5H11)}-[Orn(4R-OH,5R-OH)]T[Hyp][hTyr(3S-OH,4S-OH)]T[Pro(3S-OH,4S-Me)]; lactam 1-C)
[5]
  reduction of MIC of known antifungal on addition of 6G-318S: did not change

## CCCCCOc1ccc(-c2cc(-c3ccc(C(=O)N[C@H]4C[C@@H](O)[C@@H](O)NC(=O)[C@@H]5[C@@H](O)[C@@H](C)CN5C(=O)[C@H]([C@H](O)CC(N)=O)NC(=O)[C@H]([C@H](O)[C@@H](O)c5ccc(O)c(OS(=O)(=O)O)c5)NC(=O)[C@@H]5C[C@@H](O)CN5C(=O)[C@H]([C@@H](C)O)NC4=O)cc3)no2)cc1 [MF, Micafungin] (X1-[Orn(4R-OH,5R-OH)]T[Hyp][hTyr(3S-OH,4S-OH,3'-OSO3H)][Gln(3R-OH)][Pro(3S-OH,4S-Me)]; lactam 1-C)
[5]
  reduction of MIC of known antifungal on addition of 6G-318S: did not change
